Patent publication US10413538B2, “Administration of karenitecin for the treatment of platinum and/or taxane chemotherapy-resistant or -refractory advanced ovarian cancer” (priority 2013, dated 2019)
Entries after “also recorded” stand apart in the source; their conditions may differ. Like-named read-outs stand apart in the source and are kept apart here.

Experiments:
[1] = Glucuronidation / metabolism; type: in vitro ADME
[2] = dog, in vivo, po
[3] = test system: stage III/IV advanced epithelial ovarian cancer resistant or refractory to platinum- and taxane-based chemotherapy; assay: Phase III clinical study of Karenitecin versus Topotecan: efficacy (PFS, OS); type: in vivo, human
Description: The Primary Endpoint of the disclosed Phase III clinical study was Progression Free Survival (“PFS”); which was defined as the time period from the date of randomization to the date of first radiographically documented Progressive Disease (“PD”) or date of death due to any cause, taking either event date that occurred first. The date of PD was determined by radiographical objective disease (RECIST) measurement method. The Secondary Endpoints of the disclosed Phase III clinical study included: (i) Overall Survival (hereinafter “OS”), defined as the time from the date of randomization to the date of death due to any cause; (ii) Incidence of anemia, defined as the proportion of patients who experience ≥grade 3 anemia based on National Cancer Institute Common Terminology Criteria for Adverse Events (NCI-CTCAE) criteria at any time post-baseline after receiving study treatment; (iii) Incidence of neutropenia (including febrile neutropenia), defined as the proportion of patients who experience ≥grade 3 neutropenia based on NCI-CTCAE criteria at any time post-baseline after receiving study treatment; and (iv) Incidence of thrombocytopenia, defined as the proportion of patients who experience ≥grade 3 thrombocytopenia based on NCI-CTCAE criteria at any time post-baseline after receiving study treatment.
All patients admitted to this Phase III clinical trial were documented to be platinum- and/or taxane-resistant or refractory and have incurable disease. […] It is important to note that, currently, there is no FDA-approved chemotherapeutic drug for this specific aforementioned indication.
Approximately 80 study centers participated in this Phase III clinical study. The primary endpoint was Progression Free Survival (PFS), defined as the time period from the date of randomization to the date of first radiographically documented progressive disease or disease progression (“PD”) or date of death due to any cause, taking the event date that occurs first.
The primary endpoint was Progression Free Survival (PFS); defined as the time period from the date of randomization to the date of first radiographically documented progressive disease (PD) or date of death due to any cause, taking the event date that occurs first. The date of PD was determined by radiographically objective disease (RECIST) measurement. Secondary Endpoints: • Overall Survival (OS), defined as the time from the date of randomization to the date of death due to any cause. • Incidence of anemia, defined as the proportion of patients who experience ≥grade 3 anemia based on National Cancer Institute Common Terminology Criteria for Adverse Events (NCI-CTCAE) criteria at any time post-baseline after receiving study treatment. • Incidence of neutropenia (including febrile neutropenia), defined as the proportion of patients who experience ≥grade 3 neutropenia based on NCI-CTCAE criteria at any time post-baseline after receiving study treatment. • Incidence of thrombocytopenia, defined as the proportion of patients who experience ≥grade 3 thrombocytopenia based on NCI-CTCAE criteria at any time post-baseline after receiving study treatment.
Patients underwent procedures throughout four (4) defined periods in this study, which are briefly described below. Various clinical, laboratory, and disease evaluations were required for each of these for each periods.
Period I (Screening and Randomization): Patient eligibility was determined by compliance with protocol-specified inclusion and exclusion criteria. Patients who signed the informed consent, and successfully complete the screening process, including documentation of disease status by radiographic measures, were randomized to receive study treatment.
Period III (End of Treatment): Within ±3 days of date of treatment discontinuation, end-of treatment procedures will be conducted during Period III.

[4] = test system: panel of over twenty (20) human cancer cell lines; assay: In vitro studies on a panel of human cancer cell lines; type: cell-based
[5] = Lactone stability and lactone half-life in humans/plasma; type: in vivo, human
[6] = test system: MDR/MRP, Breast Cancer Resistance Protein (BCRP)
[7] = in vivo, iv
[8] = Phase I clinical studies of intravenous Karenitecin (safety, dose-limiting toxicity); type: in vivo, human
Description: Results from three Phase I studies indicate that Karenitecin can be safely administered to patients at the dose level of 1.0 mg/m^2/day I.V. over a one hour period of time for 5 consecutive days in a 3-week treatment cycle. […] Any gastrointestinal toxicity is generally ≤grade 2 and is not dose-limiting.
Intravenous administration of Karenitecin has been evaluated in three Phase I clinical studies in patients with the following cancer types: (i) advanced solid tumors (adult patients) (see, e.g., Schilsky, R. L., Hausheer, F. H., et al., Phase I trial of Karenitecin administered intravenously daily for five consecutive days in patients with advanced solid tumors using accelerated dose titration [abstract]. ASCO Abstract 758 (2000)); (ii) refractory or recurrent solid tumors (pediatric patients); and (iii) recurrent malignant glioma (adult patients). […]

[9] = human, in vivo
Description: The primary endpoint was Progression Free Survival (PFS); defined as the time period from the date of randomization to the date of first radiographically documented progressive disease (PD) or date of death due to any cause, taking the event date that occurs first. The date of PD was determined by radiographically objective disease (RECIST) measurement. […]
Simultaneous statistical analyses were performed on the clinical trial data from the time points when 254 and 338 Progression Free Survival (PFS) events occurred during the aforementioned Karenitecin Phase III Trial and the following results were observed. […] The PFS benefit for Karenitecin in comparison to Topotecan was determined using an Independent Review Committee (IRC).

advanced ovarian cancer = assay: Phase II study in advanced ovarian cancer patients who had failed prior treatments; type: in vivo, human
From the text: Intravenous administration of Karenitecin has been evaluated in three Phase I clinical studies in patients with the following cancer types: (i) advanced solid tumors (adult patients) (see, e.g., Schilsky, R. L., Hausheer, F. H., et al., Phase I trial of Karenitecin administered intravenously daily for five consecutive days in patients with advanced solid tumors using accelerated dose titration [abstract]. ASCO Abstract 758 (2000)); (ii) refractory or recurrent solid tumors (pediatric patients); and (iii) recurrent malignant glioma (adult patients). Intravenous administration of Karenitecin has also been evaluated in four Phase 2 clinical studies in adult patients with the following cancer types: (i) primary malignant glioma; (ii) treatment of persistent or recurrent epithelial ovarian or primary peritoneal carcinoma in heavily pre-treated patients; (iii) malignant melanoma (see, e.g., Hausheer, F. H., et al., Phase II trial of Karenitecin (BNP1350) in malignant melanoma: clinical and translational study [abstract]. ASCO Abstract 7554 (2004); and (iv) relapsed or refractory non-small cell lung cancer (see, e.g., Miller, A. A., et al., MR for the Cancer and Leukemia Group B. Phase II trial of Karenitecin in patients with relapsed or refractory advanced non-small cell lung cancer (CALGB 30004) Lung Cancer 48:399-407 (2005)).

CC[C@@]1(O)C(=O)OCc2c1cc1n(c2=O)Cc2c-1nc1ccccc1c2CC[Si](C)(C)C [Karenitecin, (4S)-4-ethyl-4-hydroxy-11-[2-(trimethylsilyl)ethyl]-1H-pyrano[3′:4′:6,7]indolizino[1,2-b]quinoline-3,14(4H,12H)-dione]
A-ring or B-ring glucuronidation [1]: does not undergo A-ring or B-ring glucuronidation | toxicities observed [2]: anorexia; weight loss; gastrointestinal toxicity (manifested as diarrhea with hemorrhage); occasional vomiting; and myelosuppression | overall survival hazard ratio, Karenitecin vs Topotecan ([3]; Adenocarcinoma (grade ≥2) not otherwise specified, P-value 0.7893): 0.898 | PFS HR, Karenitecin vs Topotecan ([3]; Adenocarcinoma (grade ≥2) not otherwise specified, P-value=0.3700): 0.684 | PFS HR, Karenitecin vs Topotecan ([3]; Best response SD after 6 cycles in a first-line setting, P-value=0.9908): 0.992 | PFS HR, Karenitecin vs Topotecan ([3]; ECOG Performance Status 0, P-value=0.0249): 0.662 | PFS HR, Karenitecin vs Topotecan ([3]; ECOG Performance Status 2, P-value=0.7481): 0.896 | PFS HR, Karenitecin vs Topotecan ([3]; FIGO Stage 111B, P-value=0.6225): 0.722 | overall survival hazard ratio, Karenitecin vs Topotecan ([3]; FIGO Stage IV, P-value 0.4516): 0.892 | PFS HR, Karenitecin vs Topotecan ([3]; FIGO Stage IV, all events, P-value=0.0556): 0.741 | PFS HR, Karenitecin vs Topotecan ([3]; FIGO Stage IV, first 254 PFS events, P-value=0.0260): 0.669 | overall survival hazard ratio, Karenitecin vs Topotecan ([3]; Histological Stage: G1-well differentiated, P-value 0.974): 0.9612 | PFS HR, Karenitecin vs Topotecan ([3]; Histological Stage: G1-well differentiated, P-value=0.8561): 0.904 | PFS HR, Karenitecin vs Topotecan ([3]; Histological Stage: G2-moderately differentiated, P-value=0.2982): 0.835 | overall survival hazard ratio, Karenitecin vs Topotecan ([3]; Histopathology Class: Undifferentiated carcinoma, P-value 0.701): 0.6426 | median PFS advantage in favor of Karenitecin ([3]; Histopathology class: Mucinous adenocarcinoma subtype): 2 month | overall survival hazard ratio, Karenitecin vs Topotecan ([3]; Histopathology class: Mucinous adenocarcinoma, P-value 0.7321): 0.841 | PFS HR, Karenitecin vs Topotecan ([3]; Histopathology class: serous adenocarcinoma, P-value=0.2829): 0.873 | PFS HR, Karenitecin vs Topotecan ([3]; Ovary as primary site of disease, P-value=0.2606): 0.885 | median progression-free survival (PFS) advantage in favor of Karenitecin (as compared with Topotecan) ([3]; overall trial population, IRC): greater than 6 week | PFS Hazard Ratio (HR), Karenitecin vs Topotecan ([3]; overall trial population, P-value=0.261): 0.885 | PFS HR, Karenitecin vs Topotecan ([3]; resistant subject sub-population, P-value=0.144): 0.822 | PFS HR, Karenitecin vs Topotecan ([3]; subpopulation refractory or resistant and/or mucinous, first 254 PFS events, P-value=0.0849): 0.770 | concentrations for inhibiting the growth of human and animal tumor cells in vitro [4]: nanomolar or sub-nanomolar concentrations | antitumor potency compared with Topotecan or SN-38 ([4]; over twenty human cancer cell lines): significantly more potent antitumor agent than either Topotecan or SN-38 | half-life in active lactone form in plasma compared with other commercially-available camptothecins [5]: longer half-life in its active lactone form in plasma | susceptibility to MDR/MRP drug resistance [6]: lacks susceptibility to MDR/MRP drug resistance | toxicities observed [7]: reversible myelosuppression (predominantly neutropenia), diarrhea, emesis and mucositis (canine) | principal and dose-limiting toxicity ([8]; Phase I, 1.0 mg/m^2/day I.V. over one hour, 5 consecutive days, 3-week cycle): non-cumulative, reversible myelosuppression; also recorded: reversible and non-cumulative neutropenia and thrombocytopenia | serious hypersensitivity reactions reported by patients ([8]; patients receiving Karenitecin to date): no serious hypersensitivity reactions | Grade 3 or 4 anemia events reduced in comparison to the Topotecan arm ([9]; female, 5 days): 27.3% | Grade 3 or 4 thrombocytopenia events reduced in comparison to the Topotecan arm ([9]; female, 5 days): 37.4% | grade 4 neutropenia reduced in comparison to the Topotecan arm ([9]; female, 5 days): 38.2% | safety concerns as monitored by the independent Data and Safety Monitoring Board (DSMB) [9]: no safety concerns related to Karenitecin were noted | Time to Progression (TTP) compared with historical results reported with Topotecan (advanced ovarian cancer): prolonged Time to Progression (TTP)
